# Measurements: patent publication US20250213533A1 (GH RESEARCH IRELAND LIMITED, priority 2022, published 2025)
# System: patients with postpartum depression (PPD)
# Test: Clinical trial of inhaled 5-MeO-DMT (IDR) in postpartum depression; one patient so far, 6 mg then 12 mg
# Settings: 1 patient
# Procedure: The single-arm, open-label clinical trial will involve 15 adult female patients with clinically diagnosed postpartum depression (PPD).
# The second dose (12 mg) will only be administered if: • a. […] The 6 mg dose was safe and well-tolerated according to the investigator, • c. Any psychoactive effects (PsE) of the prior dose have subsided, and • d. Pre-dose vital parameters and forced expiratory volume in one second (FEV1) are in normal range, or if outside of the normal range, are not clinically significant according to the investigator. • 3. Similarly, a third dose (18 mg) will only be administered if: • a. […] The 12 mg dose was safe and well-tolerated according to the investigator, and • c. Any PsE of the prior dose have subsided, and • d. Pre-dose vital parameters and forced expiratory volume in one second (FEV1) are in normal range, or if outside of the normal range, are not clinically significant according to the investigator.
# The patients will be assessed for a peak psychedelic experience (based on a patient-scored visual analogue scale, the PE scale), sedation, and other endpoints after dosing. Follow-up visits are planned for Day 1, and Day 7 after the dosing day.
# The following criteria must be met by all patients considered for clinical trial participation: • 1. Is female and in the age range between 18 and 45 years (inclusive) at screening. • 2. Has a body mass index (BMI) in the range of 18.5 and 35 kg/m^2 (inclusive) at screening. • 3. Meets the trial criteria for PPD as assessed by a trial psychiatrist or registered psychologist: • a. Diagnosis of Major Depressive Disorder without psychotic features, confirmed by the Mini-International Neuropsychiatric Interview (MINI), with peri-partum onset that began no earlier than gestation and no later than the first 4 weeks postpartum. • b. Has a Montgomery-Åsberg Depression Rating Scale (MADRS) total score of equal to or greater than 28 at screening and pre-dose on Day 0. • 6. […] Patients must have a negative pregnancy test at screening and on the pre-test day (Day −1). • 5. Is willing to delay start of other antidepressant or anxiety medication until after the end of the trial at Day 7 and agrees to keep any psychotherapy unchanged during the trial.
# A potential patient who meets any of the following key exclusion criteria will be excluded from participation in this trial: • 1. Has, based on history, psychiatric assessment, and evaluation of the MINI, a current or prior diagnosis of bipolar disorder, a manic or hypomanic episode, a psychotic disorder, Major Depressive Disorder (MDD) or other mood disorder with psychotic features, obsessive compulsive disorder, post-traumatic stress disorder (PTSD), autism spectrum disorder, borderline personality disorder, schizophrenia, delusional disorder, paranoid personality disorder, schizoaffective disorder, clinically significant intellectual disability, or any other psychiatric comorbidity that renders the patient unsuitable for the trial according to the investigator's judgment. • 2. Has one or more first or second degree relatives with a current or previously diagnosed bipolar disorder, psychotic disorder or other mood disorder (including MDD) with psychotic features. • 3. Is in the judgement of a trial psychiatrist or registered psychologist, at significant risk for suicide based on history, psychiatric assessment, and evaluation of suicidal ideation and suicidal behaviour based on the Columbia-Suicide Severity Rating Scale (C-SSRS). • 4. Has taken anti-depressive medication within 14 days or 5 half-lives (whichever is longer) prior to dosing (exception: within the last 5 weeks in the case of fluoxetine). • 5.
smiles,measurement,setting,value
COc1ccc2[nH]cc(CCN(C)C)c2c1 [5-MeO-DMT],BIMF item 11 (take a little time each week to do something for myself) score,Day 7,6
same,BIMF item 12 (taking good care of my baby's physical needs) score,Day 7,6
same,BIMF item 13 (taking good care of my physical needs) score,Day 7,5
same,BIMF item 14 (good decisions about my baby's health and well being) score,Day 7,6
same,BIMF item 15 (My baby and I are getting into a routine) score,Day 7,6
same,BIMF item 17 (able to take care of my baby and my other responsibilities) score,Day 7,5
same,BIMF item 18 (Anxiety or worry often interferes with my mothering ability) score,Day 7,5
same,BIMF item 19 (getting better at taking care of my baby) score,Day 7,1
same,BIMF item 20 (satisfied with the job I am doing as a new mother) score,Day 7,5
same,BPRS Anxiety improvement,Day 7,6
same,BPRS Anxiety score,Day 7,1
same,BPRS Blunted affect improvement,Day 7,0
same,BPRS Blunted affect score,Day 7,1
same,BPRS Conceptual disorganization improvement,Day 7,0
same,BPRS Conceptual disorganization score,Day 7,1
same,BPRS Depressive Mood improvement,Day 7,5
same,BPRS Depressive Mood score,Day 7,1
same,BPRS Disorientation improvement,Day 7,0
same,BPRS Disorientation score,Day 7,1
same,BPRS Emotional withdrawal improvement,Day 7,4
same,BPRS Emotional withdrawal score,Day 7,1
same,BPRS Excitement improvement,Day 7,1
same,BPRS Excitement score,Day 7,1
same,BPRS Grandiosity improvement,Day 7,0
same,BPRS Grandiosity score,Day 7,1
same,BPRS Guilt feelings improvement,Day 7,5
same,BPRS Guilt feelings score,Day 7,1
same,BPRS Hallucinatory behaviour improvement,Day 7,0
same,BPRS Hallucinatory behaviour score,Day 7,1
same,BPRS Hostility improvement,Day 7,0
same,BPRS Hostility score,Day 7,1
same,BPRS Mannerisms and Posturing improvement,Day 7,0
same,BPRS Mannerisms and Posturing score,Day 7,1
same,BPRS Motor retardation improvement,Day 7,0
same,BPRS Motor retardation score,Day 7,1
same,BPRS Somatic Concern improvement,Day 7,5
same,BPRS Somatic Concern score,Day 7,1
same,BPRS Suspiciousness improvement,Day 7,0
same,BPRS Suspiciousness score,Day 7,1
same,BPRS Tension improvement,Day 7,5
same,BPRS Tension score,Day 7,1
same,BPRS Uncooperativeness improvement,Day 7,0
same,BPRS Uncooperativeness score,Day 7,1
same,BPRS Unusual Thought Content improvement,Day 7,0
same,BPRS Unusual Thought Content score,Day 7,1
same,MADRS Apparent sadness improvement,Day 7,5
same,MADRS Apparent sadness score,Day 7,0
same,MADRS Concentration Difficulties improvement,Day 7,0
same,MADRS Concentration Difficulties score,Day 7,0
same,MADRS Inability to Feel improvement,Day 7,3
same,MADRS Inability to Feel score,Day 7,0
same,MADRS Inner Tension improvement,Day 7,4
same,MADRS Inner Tension score,Day 7,1
same,MADRS Lassitude improvement,Day 7,3
same,MADRS Lassitude score,Day 7,0
same,MADRS Pessimistic Thoughts improvement,Day 7,4
same,MADRS Pessimistic Thoughts score,Day 7,0
same,MADRS Reduced Sleep improvement,Day 7,5
same,MADRS Reduced Sleep score,Day 7,0
same,MADRS Reduced appetite improvement,Day 7,0
same,MADRS Reduced appetite score,Day 7,0
same,MADRS Reported sadness improvement,Day 7,4
same,MADRS Reported sadness score,Day 7,0
same,MADRS Suicidal Thoughts improvement,Day 7,0
same,MADRS Suicidal Thoughts score,Day 7,0
same,BIMF item 10 (trust my own feelings (instincts) in taking care of my baby) Δ,Day 7 vs Day 0,1
same,BIMF item 11 (take a little time each week to do something for myself) Δ,Day 7 vs Day 0,1
same,BPRS Anxiety improvement,Discharge,6
same,BPRS Anxiety score,Discharge,1
same,BPRS Blunted affect improvement,Discharge,0
same,BPRS Conceptual disorganization improvement,Discharge,0
same,BPRS Depressive Mood improvement,Discharge,5
same,BPRS Depressive Mood score,Discharge,1
same,BPRS Disorientation improvement,Discharge,0
same,BPRS Emotional withdrawal improvement,Discharge,4
same,BPRS Emotional withdrawal score,Discharge,1
same,BPRS Excitement improvement,Discharge,1
same,BPRS Excitement score,Discharge,1
same,BPRS Grandiosity improvement,Discharge,0
same,BPRS Guilt feelings improvement,Discharge,5
same,BPRS Guilt feelings score,Discharge,1
same,BPRS Hallucinatory behaviour improvement,Discharge,0
same,BPRS Hostility improvement,Discharge,0
same,BPRS Mannerisms and Posturing improvement,Discharge,0
same,BPRS Motor retardation improvement,Discharge,0
same,BPRS Somatic Concern improvement,Discharge,5
same,BPRS Somatic Concern score,Discharge,1
same,BPRS Suspiciousness improvement,Discharge,0
same,BPRS Tension score,Discharge,1
same,BPRS Uncooperativeness improvement,Discharge,0
same,BPRS Unusual Thought Content improvement,Discharge,0
same,BPRS Anxiety score,baseline,7
same,BPRS Blunted affect score,baseline,1
same,BPRS Conceptual disorganization score,baseline,1
same,BPRS Depressive Mood score,baseline,6
same,BPRS Disorientation score,baseline,1
same,BPRS Emotional withdrawal score,baseline,5
same,BPRS Excitement score,baseline,2
same,BPRS Grandiosity score,baseline,1
same,BPRS Guilt feelings score,baseline,6
same,BPRS Hallucinatory behaviour score,baseline,1
same,BPRS Hostility score,baseline,1
same,BPRS Mannerisms and Posturing score,baseline,1
same,BPRS Motor retardation score,baseline,1
same,BPRS Somatic Concern score,baseline,6
same,BPRS Suspiciousness score,baseline,1
same,BPRS Tension score,baseline,6
same,BPRS Uncooperativeness score,baseline,1
same,BPRS Unusual Thought Content score,baseline,1
same,MADRS Apparent sadness score,baseline,5
same,MADRS Inability to Feel score,baseline,3
same,MADRS Inner Tension score,baseline,5
same,MADRS Lassitude score,baseline,3
same,MADRS Pessimistic Thoughts score,baseline,4
same,MADRS Reported sadness score,baseline,4
same,Total MADRS score,baseline,29
same,changes in vital parameters,shortly after administration,"temporary, clinically non-relevant increase in heart rate and blood pressure"
